Assays:
Format in all cases: in vivo
[1] = system: field bindweed (Convolvulus arvensis L.); test: Test Example 5: pot soil treatment, growth inhibition of field bindweed; conditions: dose 30 g/ha, 22nd day after treatment, read-out: Growth inhibition rate (%) of field bindweed, Measured value
Text: (§1) On the 14th day after treatment, the state of growth of the summergrass was visually observed to determine the growth inhibition rate in accordance with the following evaluation standard. The growth inhibition rate (%) (measured value) and the growth inhibition rate (%) (calculated value) calculated by the Colby's formula are shown in Table 1. Growth inhibition rate (%)=0 (equivalent to the non-treated area) to 100 (complete kill) Upland field soil was put into a 1/160,000 ha pot, and seeds of field bindweed (Convolvulus arvensis L.) were sown. On the next day, predetermined amounts of flazasulfuron and hexazinone were diluted with water (in an amount corresponding to 300 L/ha), and applied for soil treatment by a small sprayer. On the 22nd day after treatment, the state of growth of the field bindweed was visually observed to determine the growth inhibition rate. The growth inhibition rate (%) (measured value) and the growth inhibition rate (%) calculated in the same manner as in Test Example 1 are shown in Table 5.

[2] = system: shattercane (Sorghum bicolor (L.) Moench.); test: Test Example 6: pot soil treatment, growth inhibition of shattercane; conditions: dose 30 g/ha, 22nd day after treatment, read-out: Growth inhibition rate (%) of shattercane, Measured value
Text: On the 14th day after treatment, the state of growth of the summergrass was visually observed to determine the growth inhibition rate in accordance with the following evaluation standard. The growth inhibition rate (%) (measured value) and the growth inhibition rate (%) (calculated value) calculated by the Colby's formula are shown in Table 1. Growth inhibition rate (%)=0 (equivalent to the non-treated area) to 100 (complete kill)
Upland field soil was put into a 1/160,000 ha pot, and seeds of shattercane (Sorghum bicolor (L.) Moench.) were sown. On the next day, predetermined amounts of flazasulfuron and hexazinone were diluted with water (in an amount corresponding to 300 L/ha), and applied for soil treatment by a small sprayer.
On the 22nd day after treatment, the state of growth of the shattercane was visually observed to determine the growth inhibition rate. The growth inhibition rate (%) (measured value) and the growth inhibition rate (%) calculated in the same manner as in Test Example 1 are shown in Table 6.

[3] = system: rostrate sesbania(Sesbania rostrata Bremek. & Oberm.); test: Test Example 7: pot soil treatment, growth inhibition of rostrate sesbania; conditions: 22nd day after treatment, read-out: Growth inhibition rate (%) of rostrate sesbania, Measured value
[4] = system: common ragweed (Ambrosia artemisiifolia L.); test: Test Example 11: pot soil treatment, growth inhibition of common ragweed; conditions: dose 10 g/ha, 21st day after treatment, read-out: Growth inhibition rate (%) of common ragweed, Measured value
Text: as §1, with “common ragweed (Ambrosia artemisiifolia” for “field bindweed (Convolvulus arvensis”, “imazapic” for “hexazinone”, “21st” for “22nd”, “common ragweed” for “field bindweed”, “11.” for “5.”

[5] = system: velvetleaf (Abutilon theophrasti MEDIC.); test: Test Example 13: pot soil treatment, growth inhibition of velvetleaf; conditions: dose 30 g/ha, 21st day after treatment, read-out: Growth inhibition rate (%) of velvetleaf, Measured value
[6] = system: velvetleaf (Abutilon theophrasti MEDIC.); test: Test Example 14: pot soil treatment, growth inhibition of velvetleaf; conditions: dose 30 g/ha, 21st day after treatment, read-out: Growth inhibition rate (%) of velvetleaf, Measured value
Text: as §1, with “velvetleaf (Abutilon theophrasti MEDIC.)” for “field bindweed (Convolvulus arvensis L.)”, “21st” for “22nd”, “velvetleaf” for “field bindweed”, “14.” for “5.”

[7] = system: field bindweed (Convolvulus arvensis L.); test: Test Example 15: pot soil treatment, growth inhibition of field bindweed; conditions: dose 30 g/ha, 21st day after treatment, read-out: Growth inhibition rate (%) of field bindweed, Measured value
Text: as §1, with “flazasulfuron, mesotrione” for “flazasulfuron”, “imazapic” for “hexazinone”, “21st” for “22nd”, “15.” for “5.”

Question: How did the inhibition at 30 g/ha [1] turn out when `COc1cc(OC)nc(NC(=O)NS(=O)(=O)c2ncccc2C(F)(F)F)n1` [Flazasulfuron, flazasulfuron] was run?
Answer: 0%

Question: And the inhibition at 30 g/ha [2]?
Answer: 60%

Question: What about the inhibition at 50 g/ha [3] of the same compound?
Answer: 35%

Question: What about the inhibition at 10 g/ha [4] of the same compound?
Answer: 80%

Question: What about the inhibition at 30 g/ha [5] of the same compound?
Answer: 75%

Question: What about the inhibition at 30 g/ha [6] of the same compound?
Answer: 20%

Question: And the inhibition at 30 g/ha [7]?
Answer: 0%

— patent publication US9375013B2, “Herbicidal composition” (ISHIHARA SANGYO KAISHA, LTD., priority 2013, dated 2016)
